Experimental data taken from patent US9790211B2, “5-amino-quinoline-8-carboxamide derivatives as 5-HT4 receptor agonists” (SUVEN LIFE SCIENCES LIMITED, priority 2013, dated 2017).

Key:
sAPPα = assay: Estimation of mice brain cortical sAPPα levels (ELISA); assay type: in vivo; details: s.c., 60 minutes post treatment
Method: The control group of mice received sterile water for injection subcutaneously (s.c.). […] Mice were sacrificed 60 minutes after the drug injection by cervical dislocation, the brains were quickly isolated and the cortex was dissected at −20° C. The cortex was immediately kept on a dry ice and weighed before being stored at −80° C. until Enzyme-linked immunosorbent assay (ELISA) was performed. • 1. Brain tissues were thawed and Tris Buffer Saline containing protease inhibitors (TBS, 4 times by volume) added (0.8 mL/200 mg tissues). • 2. Brain tissue samples were homogenized using glass-Teflon homogenizer at 10 strokes. The resulting homogenates were centrifuged at 15,000 rpm at 4° C. for 60 minutes. • 3. The supernatant was discarded and to the precipitate, 4 times volume (0.8 mL/200 mg tissues) of TBS was added. Again homogenized followed by centrifugation at 15,000 rpm 4° C. for 30 minutes. • 4. From the above centrifuged mixture the supernatant was discarded and 10 times volume of 6M Guanidine-HCl in 50 mM Tris buffer pH: 7.6 (500 μL/50 mg tissues) was added. The resulting solution was sonicated for 5 seconds, 4 times. • 5. Resulting mixture was incubated at the RT for 30 minutes, followed by centrifugation at 15,000 rpm, 4° C. for 30 minutes. From this 5 μL of supernatant solution was taken and diluted with 155 μL of EIA buffer (dilution factor 32). Measurement of sAPPα by ELISA Kit: To investigate the role of an acute treatment of test compound on sAPPα levels, we measured the expression of this protein in homogenates from the cortex of treated and untreated mice by ELISA assay. The entire procedure was followed as described in the ELISA kit manual (Mouse/Rat sAPPα ELISA, Catalog Number: JP27415, […], Hamburg, Germany). Statistical analyses were performed using the Graph Pad Prism (Version 4). Data are Mean±SD of sAPPa levels expressed as percentage of control values (mice which received water for injection). Values were compared between the different groups by using unpaired t test. The significance level was set at *p<0.05; […]; ***<0.001.

[1] = test system: acetylcholine levels in ventral hippocampus; assay: Modulation of acetylcholine from the ventral hippocampus (microdialysis); assay type: in vivo, male Wistar rats; details: p.o.
From the text: Male Wistar rats (240-300 gram body weights) were stereotaxically implanted with a microdialysis guide cannula in the ventral hippocampus (AP: −5.2 mm, ML: +5.0 mm, DV: −3.8 mm). Co-ordinates were taken according to Paxinos and Watson (2007) with reference points taken from bregma and vertical from the skull. The rats were allowed to recover individually for five days in a round bottom Plexiglas bowl with free access to feed and water.
One day prior to the microdialysis experiment, rats were connected to a dual quartz lined two-channel liquid swivel (Instech, UK) on a counter balance lever arm, which allowed unrestricted movements of the animal. […]
On the day of study, probe was perfused at a constant flow rate of […] with artificial cerebrospinal fluid (aCSF; NaCl 147 mM, KCl 3.0 mM, MgCl2 1.0 mM, CaCl2. 2H2O 1.3 mM, NaH2PO4.2H2O 0.2 mM and Na2HPO4. 7H2O 1.0 mM, pH 7.2). […] Dialysates were stored below −70° C. until quantitation of acetylcholine.
Acetylcholine in dialysate was quantified in the calibration range of 0.103 nmol-103.497 nmol using LC-MS/MS method.
All microdialysis data were plotted as percent change from mean dialysate basal concentrations with 100% defined as the average of five predose values. The AUC was calculated by trapezoidal rule using WinNonlin (5.0.1 version. Pharsight Corp. CA). […]

Nc1c(Cl)cc(C(=O)NCC2CCN(CC3CCOCC3)CC2)c2ncccc12.O=C(O)C(O)C(O)C(=O)O [Example 13, 5-Amino-6-chloro-N-{[1-(tetrahydro-2H-pyran-4-ylmethyl)-4-piperidinyl]methyl} quinoline-8-carboxamide L(+)-tartarate]
increase in the mice brain cortical sAPPα levels (sAPPα; 0.3 mg/kg): 39% | increase in the mice brain cortical sAPPα levels (sAPPα; 1.0 mg/kg): 41% | increase in the mice brain cortical sAPPα levels (sAPPα; 3.0 mg/kg): 46% | increase in the mice brain cortical sAPPα levels (sAPPα; 10.0 mg/kg): 66% | Area under the curve of acetylcholine change, ventral hippocampus (in words) ([1]; 10.0 mg/kg, vs vehicle, p<0.01): significant | acetylcholine levels from the ventral hippocampus (in words) ([1]; 3.0 and 10.0 mg/kg, male Wistar rats): dose dependent increase
